According to patent US10570184B2, “GLP-1/glucagon receptor co-agonists for medical use” (Novo Nordisk A/S, priority 2014, dated 2020):
Starred links: 1 amine or outer side, 2 acyl side, 3 side chain; linkers in the order of their positions; H or OH if unused. Non-standard residues stand in square brackets, D forms with d. Residues, ends and D or L forms follow the SMILES beside them. Groups on a side chain read outwards from the residue. *: point of attachment. C18 diacid = O=C(O)CCCCCCCCCCCCCCCCC(=O)*; γGlu = O=C(O)[C@H](CCC(=O)[*:2])N[*:1]; Ac4c = NC1(C(=O)O)CCC1; AEEA = NCCOCCOCC(=O)O; Aib = CC(C)(N)C(=O)O

Assays:
human GLP-1 receptor [1] = molecular target: T1, human GLP-1 receptor (Homo sapiens, UniProt P43220); experiment: Assay (I)(a) GLP-1 receptor activation, CRE luciferase reporter gene assay in BHK cells; format: cell-based; settings: without presence of serum albumin; read-out: GLP-1R EC50 (pM) [Assay (I)(a)]
T1 construct: expressed in transfected cells; host or cells: membranes of BHK cells (parent BHKTS13), clone FCW467-12A
T1 sequence (P43220 24-463): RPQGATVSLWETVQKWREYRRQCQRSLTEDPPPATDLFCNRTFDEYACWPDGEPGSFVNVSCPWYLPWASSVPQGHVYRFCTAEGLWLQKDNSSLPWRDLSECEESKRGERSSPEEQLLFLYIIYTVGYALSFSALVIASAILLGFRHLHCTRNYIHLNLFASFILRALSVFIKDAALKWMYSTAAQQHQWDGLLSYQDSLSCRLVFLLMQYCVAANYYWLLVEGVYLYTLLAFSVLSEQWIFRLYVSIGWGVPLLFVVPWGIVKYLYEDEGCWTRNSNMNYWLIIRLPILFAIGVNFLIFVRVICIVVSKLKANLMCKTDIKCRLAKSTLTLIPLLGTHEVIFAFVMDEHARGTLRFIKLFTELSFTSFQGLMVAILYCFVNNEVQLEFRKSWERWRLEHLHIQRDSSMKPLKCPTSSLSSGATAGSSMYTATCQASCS
Procedure, shortened: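 Stable BHK clone expressing human GLP-1 receptor with CRE-driven firefly luciferase, 5×10EE3 cells/well in medium with 2% ovalbumin and 0.2% Pluronic F-68. Compounds at 1×10EE-13 to 1×10EE-6 M final, 3 h at 37° C.; luminescence read, EC50 (pM) from four-parameter fit.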

human GLP-1 receptor [2] = molecular target: T1, human GLP-1 receptor; experiment: Assay (II)(a) GLP-1 receptor binding, 125I-GLP-1 displacement SPA on BHK membranes; settings: without presence of serum albumin; read-out: GLP-1R IC50 (nM) [Assay (II)(a)]
Procedure, shortened: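 Membranes from BHK cells (clone FCW467-12A) stably expressing human GLP-1R were incubated with serially diluted compounds (8×10EE-13 to 8×10EE-7 M before addition) and [125I]-GLP-1-(7-36)NH2 with WGA SPA beads, 2 h at 30° C, pH 7.4. IC50 taken from displacement by non-linear regression. Run at ≤0.001% or 2.0% final serum albumin.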

[3] = Assay (III) ThT fibrillation assay for physical stability; format: physicochemical; settings: 250 μM in 10 mM HEPES buffer, 37° C., shaking 960 rpm
Source text: The purpose of this assay is to assess the physical stability of the glucagon derivatives of the invention in aqueous solutions. Low physical stability of a peptide may lead to amyloid fibril formation, which is observed as well-ordered, thread-like macromolecular structures in the sample, which eventually may lead to gel formation. This has traditionally been measured by visual inspection of the sample. However, that kind of measurement is very subjective and depending on the observer. Therefore, the application of a small molecule indicator probe is much more advantageous. Thioflavin T (ThT) is such a probe and has a distinct fluorescence signature when binding to fibrils [Naiki et al. (1989) Anal. Biochem. 177, 244-249; LeVine (1999) Methods. Enzymol. 309, 274-284]. […] The constant t0 is the time needed to reach 50% of maximum fluorescence. The two important parameters describing fibril formation are the lag-time calculated by t0−2τ and the apparent rate constant kapp 1/τ. Samples were prepared freshly before each assay. Each sample composition is described in the legends. The pH of the sample was adjusted to the desired value using appropriate amounts of concentrated NaOH and HCl. Thioflavin T was added to the samples from a stock solution in H2O to a final concentration of 1 μM. Sample aliquots of 200 μl (250 μM of the glucagon derivative in 10 mM HEPES buffer, pH 7.5) were placed in a 96 well microtiter plate (Packard OptiPlate™-96, white polystyrene). Usually, four or eight replica of each sample (corresponding to one test condition) were placed in one column of wells. The plate was sealed with Scotch Pad (Qiagen). Incubation at given temperature, shaking and measurement of the ThT fluorescence emission were done in a Fluoroskan Ascent FL fluorescence platereader (Thermo Labsystems). The temperature was adjusted to 37° C. The plate was incubated with orbital shaking adjusted to 960 rpm with an amplitude of 1 mm. Fluorescence measurement was done using excitation through a 444 nm filter and measurement of emission through a 485 nm filter. Each run was initiated by incubating the plate at the assay temperature for 10 min. The plate was measured every 20 minutes for a desired period of time. Between each measurement, the plate was shaken and heated as described. After completion of the ThT assay the four or eight replica of each sample was pooled and centrifuged at 20000 rpm for 30 minutes at 18° C. The supernatant was filtered through a 0.22 μm filter and an aliquot was transferred to a HPLC vial. The concentration of peptide in the initial sample and in the filtered supernatant was determined by reverse phase HPLC using an appropriate standard as reference. The percentage fraction the concentration of the filtered sample constituted of the initial sample concentration was reported as the recovery. The measurement points were saved in Microsoft Excel format for further processing and curve drawing and fitting was performed using GraphPad Prism. The background emission from ThT in the absence of fibrils was negligible. The data points are typically a mean of four or eight samples and shown with standard deviation error bars. Only data obtained in the same experiment (i.e. samples on the same plate) are presented in the same graph ensuring a relative measure of fibrillation between experiments. The data set may be fitted to Eq. (1).

SMILES	EC50 (human GLP-1 receptor [1])	IC50 (human GLP-1 receptor [2])	ThT Assay Lag time (h) [Assay (III), pH 7.5] [3]
CC[C@H](C)[C@H](NC(=O)[C@H](CC(C)C)NC(=O)[C@H](Cc1c[nH]c2ccccc12)NC(=O)[C@H](CCC(N)=O)NC(=O)[C@@H](NC(=O)[C@H](Cc1ccccc1)NC(=O)[C@H](CC(=O)O)NC(=O)[C@H](CCCNC(=N)N)NC(=O)[C@H](C)NC(=O)[C@H](CCCNC(=N)N)NC(=O)[C@H](CCCNC(=N)N)NC(=O)[C@H](C)NC(=O)[C@H](CC(=O)O)NC(=O)[C@H](CC(C)C)NC(=O)[C@H](Cc1ccc(O)cc1)NC(=O)[C@H](CCCNC(=N)N)NC(=O)[C@H](CO)NC(=O)[C@H](CC(C)C)NC(=O)[C@H](CC(=O)O)NC(=O)[C@H](CO)NC(=O)[C@@H](NC(=O)[C@H](Cc1ccccc1)NC(=O)[C@@H](NC(=O)CNC(=O)[C@H](CCC(N)=O)NC(=O)C(C)(C)NC(=O)[C@@H](N)Cc1c[nH]cn1)[C@@H](C)O)[C@@H](C)O)C(C)C)C(=O)N[C@@H](CCCCNC(=O)CC[C@H](NC(=O)CC[C@H](NC(=O)CC[C@H](NC(=O)CCCCCCCCCCCCCCCCC(=O)O)C(=O)O)C(=O)O)C(=O)O)C(=O)N[C@H](C(N)=O)[C@@H](C)O [Chem. 14, N^ε28-[(4S)-4-carboxy-4-[[(4S)-4-carboxy-4-[[(4S)-4-carboxy-4-(17-carboxyheptadecanoylamino)butanoyl]amino]butanoyl]amino]butanoyl]-[Aib2,Leu10,Arg12,Ala16,Arg20,Ile27,Lys28]-Glucagon amide] (HELM PEPTIDE1{H.[Aib].Q.G.T.F.T.S.D.L.S.R.Y.L.D.A.R.R.A.R.D.F.V.Q.W.L.I.K.T.[am]}|PEPTIDE2{[O=C(O)CCCCCCCCCCCCCCCCC(=O)[*:2]].[gGlu].[gGlu].[gGlu]}$PEPTIDE1,PEPTIDE2,28:R3-4:R2$$$V2.0)	2 pM	0.1 nM	–
CC[C@H](C)[C@H](NC(=O)[C@H](CC(C)C)NC(=O)[C@H](Cc1c[nH]c2ccccc12)NC(=O)[C@H](CCC(N)=O)NC(=O)[C@@H](NC(=O)[C@H](Cc1ccccc1)NC(=O)[C@H](CCC(=O)O)NC(=O)[C@H](CCCNC(=N)N)NC(=O)[C@H](C)NC(=O)[C@H](CCCNC(=N)N)NC(=O)[C@H](CCCNC(=N)N)NC(=O)[C@H](CO)NC(=O)[C@H](CCC(=O)O)NC(=O)[C@H](CC(C)C)NC(=O)[C@H](Cc1ccc(O)cc1)NC(=O)[C@H](CCCCN)NC(=O)[C@H](CO)NC(=O)[C@@H](NC(=O)[C@H](CC(=O)O)NC(=O)[C@H](CO)NC(=O)[C@@H](NC(=O)[C@H](Cc1ccccc1)NC(=O)[C@@H](NC(=O)CNC(=O)[C@H](CCC(N)=O)NC(=O)C1(NC(=O)[C@@H](N)Cc2c[nH]cn2)CCC1)[C@@H](C)O)[C@@H](C)O)C(C)C)C(C)C)C(=O)N[C@@H](CCCCNC(=O)CC[C@H](NC(=O)CC[C@H](NC(=O)COCCOCCNC(=O)COCCOCCNC(=O)CC[C@H](NC(=O)CC[C@H](NC(=O)CCCCCCCCCCCCCCCCC(=O)O)C(=O)O)C(=O)O)C(=O)O)C(=O)O)C(=O)N[C@H](C(N)=O)[C@@H](C)O [Chem. 19, N^ε28-[(4S)-4-carboxy-4-[[(4S)-4-carboxy-4-[[2-[2-[2-[[2-[2-[2-[[(4S)-4-carboxy-4-[[(4S)-4-carboxy-4-(17-carboxyheptadecanoylamino)butanoyl]amino]butanoyl]amino]ethoxy]ethoxy]acetyl]amino]ethoxy]ethoxy]acetyl]amino]butanoyl]amino]butanoyl]-[Acb2,Val10,Glu15,Arg20,Glu21,Ile27,Lys28]-Glucagon amide] (H-H[Ac4c]QGTFTSDVSKYLESRRAREFVQWLIK([γGlu-γGlu-AEEA-AEEA-γGlu-γGlu-C18 diacid])T-NH2)	–	–	45.0 h
CC[C@H](C)[C@H](NC(=O)[C@H](CC(C)C)NC(=O)[C@H](Cc1c[nH]c2ccccc12)NC(=O)[C@H](CCC(N)=O)NC(=O)[C@@H](NC(=O)[C@H](Cc1ccccc1)NC(=O)[C@H](CC(=O)O)NC(=O)[C@H](CCCNC(=N)N)NC(=O)[C@H](C)NC(=O)[C@H](CCCNC(=N)N)NC(=O)[C@H](CCCNC(=N)N)NC(=O)[C@H](CC(C)C)NC(=O)[C@H](CC(=O)O)NC(=O)[C@H](CC(C)C)NC(=O)[C@H](Cc1ccc(O)cc1)NC(=O)[C@H](CCCCN)NC(=O)[C@H](CO)NC(=O)[C@H](CC(C)C)NC(=O)[C@H](CC(=O)O)NC(=O)[C@H](CO)NC(=O)[C@@H](NC(=O)[C@H](Cc1ccccc1)NC(=O)[C@@H](NC(=O)CNC(=O)[C@H](CCC(N)=O)NC(=O)C(C)(C)NC(=O)[C@@H](N)Cc1c[nH]cn1)[C@@H](C)O)[C@@H](C)O)C(C)C)C(=O)N[C@@H](CO)C(=O)N[C@@H](CCCCNC(=O)CC[C@H](NC(=O)CC[C@H](NC(=O)COCCOCCNC(=O)COCCOCCNC(=O)CC[C@H](NC(=O)CCCCCCCCCCCCCCCCC(=O)O)C(=O)O)C(=O)O)C(=O)O)C(N)=O [Chem. 29, N^ε29-[(4S)-4-carboxy-4-[[(4S)-4-carboxy-4-[[2-[2-[2-[[2-[2-[2-[[(4S)-4-carboxy-4-(17-carboxyheptadecanoylamino)butanoyl]amino]ethoxy]ethoxy]acetyl]amino]ethoxy]ethoxy]acetyl]amino]butanoyl]amino]butanoyl]-[Aib2,Leu10,Leu16,Arg20,Ile27,Ser28,Lys29]-Glucagon amide] (H-H[Aib]QGTFTSDLSKYLDLRRARDFVQWLISK([γGlu-γGlu-AEEA-AEEA-γGlu-C18 diacid])-NH2; N-terminus assumed)	–	–	45.0 h
CC[C@H](C)[C@H](NC(=O)[C@H](CC(C)C)NC(=O)[C@H](Cc1c[nH]c2ccccc12)NC(=O)[C@H](C)NC(=O)[C@@H](NC(=O)[C@H](Cc1ccccc1)NC(=O)[C@H](CC(=O)O)NC(=O)[C@H](CCCNC(=N)N)NC(=O)[C@H](C)NC(=O)[C@H](CCCNC(=N)N)NC(=O)[C@H](CCCNC(=N)N)NC(=O)[C@H](CC(C)C)NC(=O)[C@H](CC(=O)O)NC(=O)[C@H](CC(C)C)NC(=O)[C@H](Cc1ccc(O)cc1)NC(=O)[C@H](CCCCN)NC(=O)[C@H](CO)NC(=O)[C@H](CC(C)C)NC(=O)[C@H](CC(=O)O)NC(=O)[C@H](CO)NC(=O)[C@@H](NC(=O)[C@H](Cc1ccccc1)NC(=O)[C@@H](NC(=O)CNC(=O)[C@H](CCC(N)=O)NC(=O)C(C)(C)NC(=O)[C@@H](N)Cc1c[nH]cn1)[C@@H](C)O)[C@@H](C)O)C(C)C)C(=O)N[C@@H](CO)C(=O)N[C@@H](CCCCNC(=O)CC[C@H](NC(=O)CC[C@H](NC(=O)COCCOCCNC(=O)COCCOCCNC(=O)CC[C@H](NC(=O)CCCCCCCCCCCCCCCCC(=O)O)C(=O)O)C(=O)O)C(=O)O)C(N)=O [Chem. 31, N^ε29-[(4S)-4-carboxy-4-[[(4S)-4-carboxy-4-[[2-[2-[2-[[2-[2-[2-[[(4S)-4-carboxy-4-(17-carboxyheptadecanoylamino)butanoyl]amino]ethoxy]ethoxy]acetyl]amino]ethoxy]ethoxy]acetyl]amino]butanoyl]amino]butanoyl]-[Aib2,Leu10,Leu16,Arg20,Ala24,Ile27,Ser28,Lys29]-Glucagon amide] (H-H[Aib]QGTFTSDLSKYLDLRRARDFVAWLISK([γGlu-γGlu-AEEA-AEEA-γGlu-C18 diacid])-NH2; N-terminus assumed)	–	–	45.0 h
